# Experimental data: patent publication US8653263B2 (Janssen Pharmaceutica, priority 2009, dated 2014)
# Target: human orexin-2 receptor (Homo sapiens (Human), UniProt O43614)
# Assay: Human orexin 2 receptor radioligand binding ([3H]-EMPA competition)
# Conditions: HEK293 cells stably expressing human orexin-2 receptor; [3H]-EMPA 5 nM final; apparent Ki=IC50/(1+C/Kd), Kd=2 nM; read-out: OR 2 Ki
# Sequence of human orexin-2 receptor (O43614 whole entry): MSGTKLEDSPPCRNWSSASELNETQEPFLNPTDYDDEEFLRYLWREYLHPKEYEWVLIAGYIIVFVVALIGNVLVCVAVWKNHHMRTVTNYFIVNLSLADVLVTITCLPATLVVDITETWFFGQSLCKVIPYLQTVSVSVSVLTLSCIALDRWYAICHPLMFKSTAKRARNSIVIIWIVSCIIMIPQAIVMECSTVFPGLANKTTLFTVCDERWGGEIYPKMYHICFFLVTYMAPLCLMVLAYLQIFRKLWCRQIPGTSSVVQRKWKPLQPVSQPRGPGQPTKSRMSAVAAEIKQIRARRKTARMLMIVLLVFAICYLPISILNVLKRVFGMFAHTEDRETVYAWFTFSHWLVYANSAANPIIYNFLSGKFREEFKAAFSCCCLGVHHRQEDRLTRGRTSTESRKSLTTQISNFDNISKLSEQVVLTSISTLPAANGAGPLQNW
row,SMILES,Ki [nM]
1,"Cc1cc(C)nc(N2CC3CN(C(=O)c4ccccc4OC(F)(F)F)CC3C2)n1 (centres unmarked) [Example 274, (5-(4,6-Dimethylpyrimidin-2-yl)hexahydropyrrolo[3,4-c]pyrrol-2(1H)-yl)(2-(trifluoromethoxy)phenyl)methanone]",61
2,"Cc1cc(C)nc(N2CC3CN(C(=O)c4ccnn4-c4ccccc4)CC3C2)n1 (centres unmarked) [Example 10, 2-(4,6-Dimethylpyrimidin-2-yl)-5-[(1-phenyl-1H-pyrazol-5-yl)carbonyl]octahydropyrrolo[3,4-c]pyrrole]",170
3,"O=C(c1cc(F)ccc1-c1ncccn1)N1CC2CN(c3cnc4ccccc4n3)CC2C1 (centres unmarked) [Example 146, 2-{5-[(5-Fluoro-2-pyrimidin-2-ylphenyl)carbonyl]hexahydropyrrolo[3,4-c]pyrrol-2(1H)-yl}quinoxaline]",27
4,"Cc1cnc(C)c(N2CC3CN(C(=O)c4ccc(F)cc4-n4nccn4)CC3C2)n1 (centres unmarked) [Example 104, 2-(3,6-Dimethylpyrazin-2-yl)-5-{[4-fluoro-2-(2H-1,2,3-triazol-2-yl)phenyl]carbonyl}octahydropyrrolo[3,4-c]pyrrole]",42
5,"Cc1cc(C)nc(N2CC3CN(C(=O)c4cccc(F)c4-c4ncccc4C)CC3C2)n1 (centres unmarked) [Example 371, (5-(4,6-Dimethylpyrimidin-2-yl)hexahydropyrrolo[3,4-c]pyrrol-2(1H)-yl)(3-fluoro-2-(3-methylpyridin-2-yl)phenyl)methanone]",3400
6,"Cc1cc(C)nc(N2CC3CN(C(=O)c4cc(F)ccc4-c4ncco4)CC3C2)n1 (centres unmarked) [Example 404, (5-(4,6-Dimethylpyrimidin-2-yl)hexahydropyrrolo[3,4-c]pyrrol-2(1H)-yl)(5-fluoro-2-(oxazol-2-yl)phenyl)methanone]",19
7,"Cc1ccnc(N2CC3CN(C(=O)c4ccccc4-c4nnc[nH]4)CC3C2)n1 (centres unmarked) [Example 87, 2-(4-Methylpyrimidin-2-yl)-5-{[2-(4H-1,2,4-triazol-3-yl)phenyl]carbonyl}octahydro-pyrrolo[3,4-c]pyrrole]",509
8,"CN(C)c1nc(N2CC3CN(C(=O)c4ccccc4-n4nccn4)CC3C2)cc(C(F)(F)F)n1 (centres unmarked) [Example 121, N,N-Dimethyl-4-[5-{[2-(2H-1,2,3-triazol-2-yl)phenyl]carbonyl}hexahydropyrrolo[3,4-c]pyrrol-2(1H)-yl]-6-(trifluoromethyl)pyrimidin-2-amine]",15
9,"COc1ccc(C(=O)N2CC3CN(c4cnc5cc(F)c(F)cc5n4)CC3C2)c(-n2nccn2)c1 (centres unmarked) [Example 389, (5-(6,7-Difluoroquinoxalin-2-yl)hexahydropyrrolo[3,4-c]pyrrol-2(1H)-yl)(4-methoxy-2-(2H-1,2,3-triazol-2-yl)phenyl)methanone]",22
10,"Cc1cc(C)nc(N2CC3CN(C(=O)c4cccnc4-c4ccn[nH]4)CC3C2)n1 (centres unmarked) [Example 237, (2-(1H-Pyrazol-5-yl)pyridin-3-yl)(5-(4,6-dimethylpyrimidin-2-yl)hexahydropyrrolo[3,4-c]pyrrol-2(1H)-yl)methanone]",69
11,"CN(C)c1cc(N2CC3CN(C(=O)c4c(F)cccc4-n4nccn4)CC3C2)nc(C(F)(F)F)n1 (centres unmarked) [Example 3, 6-[5-{[2-Fluoro-6-(2H-1,2,3-triazol-2-yl)phenyl]carbonyl}hexahydropyrrolo[3,4-c]pyrrol-2(1H)-yl]-N,N-dimethyl-2-(trifluoromethyl)pyrimidin-4-amine]",42
12,"Cc1cc(C)nc(N2CC3CN(C(=O)c4ccccc4-c4nnc[nH]4)CC3C2)n1 (centres unmarked) [Example 14, 2-(4,6-Dimethylpyrimidin-2-yl)-5-{[2-(1H-1,2,4-triazol-5-yl)phenyl]carbonyl}octahydro-pyrrolo[3,4-c]pyrrole]",28
13,"COc1cc(OC)nc(N2CC3CN(C(=O)c4ccccc4-c4cccs4)CC3C2)n1 (centres unmarked) [Example 138, 2-(4,6-Dimethoxypyrimidin-2-yl)-5-[(2-thiophen-2-ylphenyl)carbonyl]octahydro pyrrolo[3,4-c]pyrrole]",30
14,"COc1ccc(C(=O)N2CC3CN(c4ncc(C)c(C)n4)CC3C2)c(-n2nccn2)c1 (centres unmarked) [Example 380, 2-(4,5-Dimethylpyrimidin-2-yl)-5-{[4-methoxy-2-(2H-1,2,3-triazol-2-yl)phenyl]carbonyl}octahydropyrrolo[3,4-c]pyrrole]",15
15,"O=C(c1ccccc1-c1cccc(Cl)c1)N1CC2CN(c3cnc4ccccc4n3)CC2C1 (centres unmarked) [Example 41, 2-{5-[(3′-Chlorobiphenyl-2-yl)carbonyl]hexahydropyrrolo[3,4-c]pyrrol-2(1H)-yl}quinoxaline]",356
16,"CCOc1ccccc1C(=O)N1CC2CN(c3nccc(OC)n3)CC2C1 (centres unmarked) [Example 59, 2-[(2-Ethoxyphenyl)carbonyl]-5-(4-methoxypyrimidin-2-yl)octahydropyrrolo[3,4-c]pyrrole]",778

# More lines, in order of falling Ki, values ahead:
row,Ki [nM],SMILES
1,10000,"Cc1ccoc1C(=O)N1CC2CN(c3cnc4ccccc4n3)CC2C1 (centres unmarked) [Example 355, (3-Methylfuran-2-yl)(5-(quinoxalin-2-yl)hexahydropyrrolo[3,4-c]pyrrol-2(1H)-yl)methanone]"
2,1370,"COc1ccccc1C(=O)N1CC2CN(c3nc(C)cc(C)n3)CC2C1 (centres unmarked) [Example 201, [5-(4,6-Dimethyl-pyrimidin-2-yl)-hexahydro-pyrrolo[3,4-c]pyrrol-2-yl]-(2-methoxy-phenyl)-methanone]"
3,1310,"O=C(c1ccccc1-c1cccc(Cl)c1)N1CC2CN(c3nccc(-c4ccccc4)n3)CC2C1 (centres unmarked) [Example 198, (3′-Chloro-biphenyl-2-yl)-[5-(4-phenyl-pyrimidin-2-yl)-hexahydro-pyrrolo[3,4-c]pyrrol-2-yl]-methanone]"
4,940,"Cc1cc(C)nc(N2CC3CN(C(=O)c4ncccc4-c4nc(C)no4)CC3C2)n1 (centres unmarked) [Example 386, 2-(4,6-Dimethylpyrimidin-2-yl)-5-{[3-(3-methyl-1,2,4-oxadiazol-5-yl)pyridin-2-yl]carbonyl}octahydropyrrolo[3,4-c]pyrrole]"
5,744,"COc1ccnc(N2CC3CN(C(=O)c4ccccc4-c4cccc(Cl)c4)CC3C2)n1 (centres unmarked) [Example 55, 2-[(3′-Chlorobiphenyl-2-yl)carbonyl]-5-(4-methoxypyrimidin-2-yl)octahydro-pyrrolo[3,4-c]pyrrole]"
6,716,"Cc1ccnc(N2CC3CN(C(=O)c4ccccc4-c4cccc(F)c4)CC3C2)n1 (centres unmarked) [Example 48, 2-[(3′-Fluorobiphenyl-2-yl)carbonyl]-5-(4-methylpyrimidin-2-yl)octahydro-pyrrolo[3,4-c]pyrrole]"
7,650,"O=C(c1cccc(F)c1Br)N1CC2CN(c3ncc4cc(F)ccc4n3)CC2C1 (centres unmarked) [Example 247, (2-Bromo-3-fluorophenyl)(5-(6-fluoroquinazolin-2-yl)hexahydropyrrolo[3,4-c]pyrrol-2(1H)-yl)methanone]"
8,319,"CCOc1cccc(OCC)c1C(=O)N1CC2CN(c3nc(C)cc(C)n3)CC2C1 (centres unmarked) [Example 229, 2-[(2,6-Diethoxyphenyl)carbonyl]-5-(4,6-dimethylpyrimidin-2-yl)octahydropyrrolo[3,4-c]pyrrole]"
9,215,"Cc1nc2ccccc2nc1N1CC2CN(C(=O)c3ccccc3-c3nnc[nH]3)CC2C1 (centres unmarked) [Example 95, 2-Methyl-3-[5-{[2-(4H-1,2,4-triazol-3-yl)phenyl]carbonyl}hexahydropyrrolo[3,4-c]pyrrol-2(1H)-yl]quinoxaline]"
10,142,"Cc1cc(C)nc(N2CC3CN(C(=O)c4ccccc4-c4ccccc4)CC3C2)n1 (centres unmarked) [Example 44, 2-(Biphenyl-2-ylcarbonyl)-5-(4,6-dimethylpyrimidin-2-yl)octahydropyrrolo[3,4-c]pyrrole]"
11,70,"O=C(c1ccccc1-c1cccs1)N1CC2CN(c3nccc(-c4ccccc4)n3)CC2C1 (centres unmarked) [Example 22, 2-(4-Phenylpyrimidin-2-yl)-5-[(2-thiophen-2-ylphenyl)carbonyl]octahydro-pyrrolo[3,4-c]pyrrole]"
12,65,"COc1cc(N2CC3CN(C(=O)c4cc(F)ccc4-n4nccn4)CC3C2)nc(N(C)C)n1 (centres unmarked) [Example 4, 4-[5-{[5-Fluoro-2-(2H-1,2,3-triazol-2-yl)phenyl]carbonyl}hexahydropyrrolo[3,4-c]pyrrol-2(1H)-yl]-6-methoxy-N,N-dimethylpyrimidin-2-amine]"
13,63,"O=C(c1ccccc1-c1cccs1)N1CC2CN(c3nc4ccccc4o3)CC2C1 (centres unmarked) [Example 139, 2-{5-[(2-Thiophen-2-ylphenyl)carbonyl]hexahydropyrrolo[3,4-c]pyrrol-2(1H)-yl}-1,3-benzoxazole]"
14,58,"COc1ccc(-n2nccn2)c(C(=O)N2CC3CN(c4cnc5cc(F)c(F)cc5n4)CC3C2)c1 (centres unmarked) [Example 245, (5-(6,7-Difluoroquinoxalin-2-yl)hexahydropyrrolo[3,4-c]pyrrol-2(1H)-yl)(5-methoxy-2-(2H-1,2,3-triazol-2-yl)phenyl)methanone]"
15,51,"Cc1cc(N(C)C)nc(N2CC3CN(C(=O)c4ccccc4-n4nccn4)CC3C2)n1 (centres unmarked) [Example 119, N,N,6-Trimethyl-2-[5-{[2-(2H-1,2,3-triazol-2-yl)phenyl]carbonyl}hexahydropyrrolo[3,4-c]pyrrol-2(1H)-yl]pyrimidin-4-amine]"
16,38,"Cc1cc(C)nc(N2CC3CN(C(=O)c4c(F)cccc4-c4nc(C)no4)CC3C2)n1 (centres unmarked) [Example 315, 2-(4,6-Dimethylpyrimidin-2-yl)-5-{[2-fluoro-6-(3-methyl-1,2,4-oxadiazol-5-yl)phenyl]carbonyl}octahydropyrrolo[3,4-c]pyrrole]"
17,30,COc1ccc(C(=O)N2CC3CN(c4ncc5cc(F)ccc5n4)CC3C2)c(-n2nccn2)c1 (centres unmarked) [Example 388]
18,16,"O=C(c1cccc(F)c1-c1ncccn1)N1CC2CN(c3cnc4cc(F)c(F)cc4n3)CC2C1 (centres unmarked) [Example 387, (5-(6,7-Difluoroquinoxalin-2-yl)hexahydropyrrolo[3,4-c]pyrrol-2(1H)-yl)(3-fluoro-2-(pyrimidin-2-yl)phenyl)methanone]"
19,7,"Cc1cc(C)nc(N2CC3CN(C(=O)c4ccccc4-c4cccs4)CC3C2)n1 (centres unmarked) [Example 43, 2-(4,6-Dimethylpyrimidin-2-yl)-5-[(2-thiophen-2-ylphenyl)carbonyl]octahydro-pyrrolo[3,4-c]pyrrole]"
